Target: Human Factor D (Homo sapiens (Human), UniProt P00746)
Assay: Human Factor D Assay
Type: biochemical
Details: Human Factor D 80 nM, substrate Z-L-Lys-SBzl, DTNB, A405; read-out: IC50 (Stars)
Description: Example 2. Human Factor D Assay
Human Factor D (purified from human serum, Complement Technology, Inc.) at 80 nM final concentration is incubated with test compound at various concentrations for 5 min at room temperature in 50 mM Tris, 1M NaCl, pH 7.5. A synthetic substrate Z-L-Lys-SBzl and DTNB (Ellman's reagent) are added to final concentrations of 100 µM each. Absorbance at 405 nm (A405) is recorded at 30 second intervals for 30 minutes using a microplate spectrophotometer. IC50 values are calculated by nonlinear regression of Complement Factor D reaction rates as a function of test compound concentration.

Chain of Human Factor D (P00746 26-253): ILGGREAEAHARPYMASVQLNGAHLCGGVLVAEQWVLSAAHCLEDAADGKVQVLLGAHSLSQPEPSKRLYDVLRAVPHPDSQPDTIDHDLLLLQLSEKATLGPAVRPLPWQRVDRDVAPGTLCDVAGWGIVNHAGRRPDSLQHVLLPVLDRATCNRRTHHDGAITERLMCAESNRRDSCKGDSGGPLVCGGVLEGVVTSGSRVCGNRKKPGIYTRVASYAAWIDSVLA

Row | Compound | IC50
1 | CC(=O)c1nn(CC(=O)N2[C@H]3C[C@@]4(CNC(=O)CCOCc5ccc(Br)nc5NC3=O)C[C@@H]24)c2ccc(-c3cnc(C)nc3)cc12 [Compound T-164] | < 1000 nM
2 | CC(=O)c1nn(CC(=O)N2[C@H]3C[C@]4(C[C@@H]24)Cn2cc(nn2)COCc2ccc(Br)nc2NC3=O)c2cnccc12 [Compound T-27, (31R,33S,35R,Z)-32-(2-(3-acetyl-1H-pyrazolo[3,4-c]pyridin-1-yl)acetyl)-66-bromo-11H-8-oxa-32,5-diaza-6(2,3)-pyridina-1(1,4)-triazola-3(5,3)-bicyclo[3.1.0]hexanacyclononaphan-4-one] | < 1000 nM
3 | CC(=O)c1nn(CC(=O)N2[C@H]3C[C@@]4(COCCCCCCc5ccc(Br)nc5NC3=O)C[C@@H]24)c2ccc(-c3cnc(C)nc3)cc12 [Compound T-39] | < 1000 nM
4 | CC(=O)c1nn(CC(=O)N2[C@H]3C[C@@]4(Cc5nc(no5)C=CCOCc5ccc(Br)nc5NC3=O)C[C@@H]24)c2c(C)cc(-c3cnc(C)nc3)cc12 [Compound T-113] | < 1000 nM
5 | CC(=O)c1nn2c3c(cc(-c4cnc(C)nc4)cc13)CC=CCCCC(=O)NC[C@@]13C[C@@H](C(=O)Nc4ccc(F)c(Br)n4)N(C(=O)C2)[C@@H]1C3 [Compound T-214] | < 1000 nM
6 | CC(=O)c1nn(CC(=O)N2[C@H]3C[C@@]4(CNC(=O)C(F)(F)CCCCOCc5ccc(Br)nc5NC3=O)C[C@@H]24)c2ccc(-c3cnc(C)nc3)cc12 [Compound T-120] | < 1000 nM
7 | CC(=O)c1nn(CC(=O)N2[C@H]3C[C@]4(C[C@@H]24)CN(C)CCCCC=CCc2ccc(Br)nc2NC3=O)c2cnc(-c3cnc(C)nc3)cc12 [Compound T-56] | < 1000 nM
8 | CC(=O)c1nn2c3c(cc(-c4cnc(C)nc4)cc13)CC=CCCCC(=O)NC[C@]1(F)CN(C[C@@H]1C(=O)Nc1nc(C(F)(F)F)ccc1C)C(=O)C2 [Compound T-167] | < 1000 nM
9 | CC(=O)c1nn(CC(=O)N2[C@H]3C[C@@]4(CNC(=O)C(C)(C)CC=CCOCc5ccc(Br)nc5NC3=O)C[C@@H]24)c2cnc(-c3cnc(C)nc3)cc12 [Compound T-114] | < 1000 nM
10 | CC(=O)c1nn(CC(=O)N2[C@H]3C[C@]4(C[C@@H]24)CN(C)CCCCCCc2ccc(Br)nc2NC3=O)c2cnc(-c3cnc(C)nc3)cc12 [Compound T-76] | < 1000 nM
11 | CC(=O)c1nn2c3c(cc(-c4cnc(C)nc4)cc13)CC=CCCCC(=O)NC[C@@]1(F)C[C@@H](C(=O)Nc3nc(Br)ccc3C)N(C1)C(=O)C2 [Compound T-174] | < 1000 nM
12 | CC(=O)c1nn2c3c(cc(-c4cnc(C)nc4)cc13)C=CCCCCCN(C)C[C@@]13C[C@@H](C(=O)Nc4nc(Br)ccc4C)N(C(=O)C2)[C@@H]1C3 [Compound T-58] | < 1000 nM
13 | CC(=O)c1nn(CC(=O)N2[C@H]3C[C@@]4(CNC(=O)C(C)(C)C=CCOCc5ccc(Br)nc5NC3=O)C[C@@H]24)c2cnc(-c3cnc(C)nc3)cc12 [Compound T-112] | < 1000 nM
14 | CC(=O)c1nn(CC(=O)N2[C@H]3C[C@@]4(COc5cccc(n5)CCCCCCCc5ccc(Br)nc5NC3=O)C[C@@H]24)c2ccc(-c3cnc(C)nc3)cc12 [Compound T-165] | < 1000 nM
15 | Cc1ncc(-c2cc(CF)c3c(c2)c(C=O)nn3CC(=O)N2[C@H]3C[C@]4(C[C@@H]24)CN(C)CCCCCCCc2ccc(Br)nc2NC3=O)cn1 [Compound T-74] | < 1000 nM
16 | CC(=O)c1nn2c3c(cc(-c4cnc(C)nc4)cc13)CCCCCCC(=O)NC[C@@]13C[C@@H](C(=O)Nc4cncc(Br)n4)N(C(=O)C2)[C@@H]1C3 [Compound T-234] | < 1000 nM
17 | CC(=O)c1nn2c3c(cc(-c4cnc(C)nc4)cc13)CCCCCCC(=O)NC[C@@]13C[C@@H](C(=O)NCC(C)(C)C)N(C(=O)C2)[C@@H]1C3 [Compound T-201] | < 1000 nM
18 | CC(=O)c1nn2c3c(cc(-c4cnc(C)nc4)cc13)CCCCCCC(=O)NC[C@@]13C[C@@H](C(=O)Nc4ccn(CC(F)(F)F)n4)N(C(=O)C2)[C@@H]1C3 [Compound T-92] | < 1000 nM
19 | CC(=O)c1nn(CC(=O)N2[C@H]3C[C@@]4(COCC=CCOCc5ccc(Br)nc5NC3=O)C[C@@H]24)c2cnccc12 [Compound T-11, (41R,43S,45S)-42-(2-(3-acetyl-1H-pyrazolo[3,4-c]pyridin-1-yl)acetyl)-16-bromo-6,11-dioxa-42,2-diaza-1(2,3)-pyridina-4(3,5)-bicyclo[3.1.0]hexanacyclododecaphan-8-en-3-one] | < 1000 nM
20 | CC(=O)c1nn2c3c(cc(-c4cnc(C)nc4)cc13)CCCCCNC(=O)NC[C@@]13C[C@@H](C(=O)Nc4nc(C(F)(F)F)ccc4C)N(C(=O)C2)[C@@H]1C3 [Compound T-238] | < 1000 nM
21 | CC(=O)c1nn(CC(=O)N2C[C@@]3(F)COCCCCOCc4ccc(Br)nc4NC(=O)[C@@H]2C3)c2ccc(-c3cnc(C)nc3)cc12 [Compound T-162] | < 1000 nM

Row | Compound | IC50
22 | Cc1ncc(-c2cc3c4c(c2)c(C(N)=O)nn4CC(=O)N2[C@H](C(=O)Nc4nc(Br)ccc4C)C[C@@]4(CNC(=O)CCCC=CC3)C[C@@H]24)cn1 [Compound T-152] | < 1000 nM
23 | CC(=O)c1nn2c3c(cc(-c4cnc(C)nc4)cc13)CCCCCC(C)(C)C(=O)N(C)C[C@@]13C[C@@H](C(=O)Nc4cccc(C(F)(F)F)n4)N(C(=O)C2)[C@@H]1C3 [Compound T-186] | < 1000 nM
24 | COc1cc(Br)nc(NC(=O)[C@@H]2C[C@]34CNC(=O)CCCC=CCc5cc(-c6cnc(C)nc6)cc6c(C(C)=O)nn(c56)CC(=O)N2[C@@H]3C4)c1 [Compound T-209] | < 1000 nM
25 | CC(=O)c1nn(CC(=O)N2[C@H]3C[C@@]4(COC/C=C/COCc5ccc(Br)nc5NC3=O)C[C@@H]24)c2cnc(-c3cnc(C)nc3)cc12 [Compound T-44] | < 1000 nM
26 | Cc1ncc(-c2cc3c(C(N)=O)nn4c3c(n2)CCCCCCOC[C@@]23C[C@@H](C(=O)Nc5nc(C(F)(F)F)ccc5C)N(C(=O)C4)[C@@H]2C3)cn1 [Compound T-156] | < 1000 nM
27 | CC(=O)c1nn2c3c(cc(-c4cnc(C)nc4)cc13)CCCCCCC(=O)NC[C@@]13C[C@@H](C(=O)Nc4cc(Br)ccc4F)N(C(=O)C2)[C@@H]1C3 [Compound T-230] | < 1000 nM
28 | CC(=O)c1nn(CC(=O)N2[C@H]3C[C@@]4(COCC=CCOCc5ccc(Br)nc5NC3=O)C[C@@H]24)c2ccc(-c3cnc(C)nc3)cc12 [Compound T-3, (41R,43S,45S)-42-(2-(3-acetyl-5-(2-methylpyrimidin-5-yl)-1H-indazol-1-yl)acetyl)-16-bromo-6,11-dioxa-42,2-diaza-1(2,3)-pyridina-4(3,5)-bicyclo[3.1.0]hexanacyclododecaphan-8-en-3-one] | < 1000 nM
29 | CC(=O)c1nn2c3c(cc(-c4cnc(C)nc4)cc13)CCCCCCC(=O)NC[C@@]13C[C@@H](C(=O)N[C@H](C)COC(F)(F)F)N(C(=O)C2)[C@@H]1C3 [Compound T-207] | < 1000 nM
30 | CC(=O)c1nn2c3c(cc(-c4cnc(C)nc4)cc13)CCCCCCCOC[C@@]13C[C@@H](C(=O)Nc4nc(C(F)(F)F)ccc4C)N(C(=O)C2)[C@@H]1C3 [Compound T-102] | < 1000 nM
31 | CC(=O)c1nn2c3c(cc(-c4cnc(C)nc4)cc13)CC=CCCCC(=O)NC[C@@]13C[C@@H](C(=O)Nc4nc(Br)ccc4C)N(C(=O)C2)[C@@H]1C3 [Compound T-21, (41R,43S,45R)-13-acetyl-N-(6-bromo-3-methylpyridin-2-yl)-15-(2-methylpyrimidin-5-yl)-3,7-dioxo-11H-42,6-diaza-1(1,7)-indazoia-4(2,5)-bicyclo[3.1.0]hexanacyclotridecaphan-11-ene-43-carboxamide] | < 1000 nM
32 | CC(=O)c1nn2c3c(cc(-c4cnc(C)nc4)cc13)CCCCCCC(=O)NC[C@@]1(F)C[C@@H](C(=O)Nc3nc(C(F)(F)F)ccc3C)N(C1)C(=O)C2 [Compound T-168] | < 1000 nM
33 | CC(=O)c1nn(CC(=O)N2C[C@@]3(F)COCCCCCCCc4ccc(Br)nc4NC(=O)[C@@H]2C3)c2c(C)nc(-c3cnc(C)nc3)cc12 [Compound T-107] | < 1000 nM
34 | CC(=O)c1nn2c3c(cc(-c4cnc(C)nc4)cc13)CCCCCCC(=O)NC[C@@]13CC(C(=O)N[C@H](C)c4cccc(Cl)c4F)N(C(=O)C2)[C@@H]1C3 (stereo partly drawn) [Compound T-227] | < 1000 nM
35 | Cc1ncc(-c2cc3c4c(c2)c(C(N)=O)nn4CC(=O)N2[C@H](C(=O)Nc4nc(C(F)(F)F)ccc4C)C[C@@]4(CNC(=O)CCCC=CC3)C[C@@H]24)cn1 [Compound T-134] | < 1000 nM
36 | CC(=O)c1nn2c3c(cc(-c4cnc(C)nc4)cc13)CCCCCCC(=O)NC[C@]1(F)C[C@@H](C(=O)Nc3nc(C(F)(F)F)ccc3C)N(C1)C(=O)C2 [Compound T-128] | < 1000 nM
37 | CC(=O)c1nn(CC(=O)N2[C@H]3C[C@@]4(CNC(=O)C(C)(C)CCCCc5ccc(Br)nc5NC3=O)C[C@@H]24)c2ccc(-c3cnc(C)nc3)cc12 [Compound T-183] | < 1000 nM
38 | CC(=O)c1nn2c3c(cc(-c4cnc(C)nc4)cc13)CCCCCC(C)(C)C(=O)NC[C@@]13C[C@@H](C(=O)Nc4ccn(CC(F)(F)F)n4)N(C(=O)C2)[C@@H]1C3 [Compound T-185] | < 1000 nM
39 | CC(=O)c1nn(CC(=O)N2[C@H]3C[C@@]4(COCC=CCOCc5ccc(Br)nc5NC3=O)C[C@@H]24)c2c(C)cccc12 [Compound T-12, (41R,43S,45S)-42-(2-(3-acetyl-7-methyl-1H-indazol-1-yl)acetyl)-16-bromo-6,11-dioxa-42,2-diaza-1(2,3)-pyridina-4(3,5)-bicyclo[3.1.0]hexanacyclododecaphan-8-en-3-one] | < 1000 nM
40 | CC(=O)c1nn2c3c(cc(-c4cnc(C)nc4)cc13)CC=CCCCC(=O)NC[C@@]13C[C@@H](C(=O)Nc4nc(Br)ccc4C4CC4)N(C(=O)C2)[C@@H]1C3 [Compound T-211] | < 1000 nM
41 | CC(=O)c1nn2c3c(cc(-c4cnc(C)nc4)cc13)CCCCCCCc1cccc(c1)COC[C@@]13C[C@@H](C(=O)Nc4nc(Br)ccc4C)N(C(=O)C2)[C@@H]1C3 [Compound T-136] | < 1000 nM
42 | CC(=O)c1nn(CC(=O)N2C[C@@]3(F)CNC(=O)C(C)(C)CCCCOCc4ccc(Br)nc4NC(=O)[C@@H]2C3)c2ccc(-c3cnc(C)nc3)cc12 [Compound T-173] | < 1000 nM

Source: US11053253B2, “Macrocyclic compounds for treatment of medical disorders” (Achillion Pharmaceuticals, Inc., priority 2017, dated 2021)
